Test results from paper PMC6627331, “Identification of Small Molecule Inhibitors of Staphylococcus aureus RnpA” (Antibiotics, 2019).
pIC50: −log10 of the molar value.

Tests used:
[1] = tested on: norA mRNA in S. aureus UAMS-1 cells; assay: Cellular norA mRNA turnover (qRT-PCR after rifampin arrest); type: cell-based, Staphylococcus aureus; conditions: 0.5× MIC for 30 min; 5 min post-transcriptional arrest; mock 99%
Description: S. aureus mRNA half-life determinations were performed as previously described. […] Rifampin (Sigma-Aldrich) was added to the culture at a final concentration of 200 μg·mL^−1 to inhibit de novo transcript synthesis. Half of the culture was immediately removed and combined with an equal volume of ice cold acetone:ethanol (1:1 v/v). The remaining culture was returned to the shaking 37 °C incubator for an additional 5 min and then subsequently combined with an equal volume of ice cold acetone:ethanol (1:1 v/v) and stored at −80 °C until processing, as described below.
For total bacterial RNA isolation, cell suspensions were thawed on ice, centrifuged at 3000 rpm for 10 min at 4 °C, the resulting cell pellets were resuspended in ice-cold TE buffer (10 mM Tris-HCl, pH 8.0, 1 mM EDTA), and transferred into a FastPrep bead beater tube containing 0.1 mm silica spheres (MP Biomedicals; Santa Ana, CA, USA). Mixtures were homogenized at 5 m·s^−1 for 20 s, rested on ice for 5 min, and then homogenized again at 4.5 m·s^−1 in a FastPrep-24 instrument. Cellular debris were collected by centrifugation at 13,000 rpm for 15 min at 4 °C, whereas bacterial RNA was isolated from the supernatant using Qiagen RNeasy Mini Kits and miRNeasy Mini Kits were used to isolate total bacterial RNA, following the manufacturer’s instructions. RNA quantity and quality were measured using a NanoDrop 2000 spectrophotometer (ThermoFisher Scientific). For qRT-PCR, 1 μg of total bacterial RNA was treated with 3 units of DNase I (Ambion; Carlsbad, CA, USA) for 1 h at 37 °C to remove any DNA contaminants. RNA cleanup was performed using the Qiagen RNeasy Mini Kit. Subsequently, the BioRad iScript cDNA Synthesis Kit (Hercules, CA, USA) was used to convert 200 ng of RNA into cDNA, which was amplified using the BioRad iQ SYBR Green Supermix per the manufacturer’s instructions and fluorescence was read on the Biorad CFX 96 Connect machine. Transcript levels were compared to the internal control 16S rRNA (ΔΔCt method), and plotted as a fold change compared to control. The following primer pairs were used in this study for qRT-PCR: norA forward—[…] and norA reverse-[…] CTAAG; -15 ptRNA^Tyr forward-[…] and tRNA^Tyr reverse-TGGTG […]; 16S rRNA forward-[…] and 16S rRNA reverse-[…].

[2] = target: T1, S. aureus RNase P (RnpA + rnpB) (Staphylococcus aureus, UniProt P0A0H5); assay: RnpA-dependent RNase P in vitro ptRNA^Tyr processing assay; type: biochemical; conditions: in vitro ptRNA^Tyr processing; read-out: Processing IC50
T1 construct: hexahistidine (His6) (N); made in house; host or cells: E. coli BL21 (DE3), plasmid pEXP5-nt
T1 sequence (P0A0H5 1-117): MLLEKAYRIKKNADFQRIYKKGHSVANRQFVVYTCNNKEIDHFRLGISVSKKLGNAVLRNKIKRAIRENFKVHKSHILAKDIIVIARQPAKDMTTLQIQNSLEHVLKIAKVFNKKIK
Description: S. aureus RNase P activity assays were performed according to conditions described previously. Briefly, ptRNA^Tyr and rnpB RNA species were first denatured by heating to 95 °C for 5 min then slow cooled to room temperature. RNase P was reconstituted by mixing an equal molar ratio of rnpB and RnpA for 15 min at 37 °C. Precursor tRNA processing inhibition reactions were performed by mixing 1.25 pmol of reconstituted RNase P (RnpA + rnpB) with an equal volume of 2× low salt buffer (50 mM Tris-HCl pH 8.0, 5 mM MgCl2) in the presence of DMSO (negative control) or the indicated compound (≤500 µM) and incubated for 5 min at 37 °C. 5 pmol ptRNA^Tyr was added and the mixture was incubated at 37 °C 15 min. Reactions were stopped by adding 2× RNA loading dye and heating at 65 °C for 10 min. Each sample was electrophoresed in a 7 M urea/8% polyacrylamide gel then stained with ethidium bromide. The Biorad EZ Gel Doc imaging system was used to visualize the RNA and relative abundance of the mature tRNA^Tyr band (% processing) in the negative control or in samples containing the indicated compounds and analyzed using Biorad Image Lab densitometry software. The inhibitory activity of the indicated compounds were calculated as a % inhibition using the following equation: […].
To assess IC50, % RNase P processing inhibition was plotted against compound concentration and a linear best fit equation was generated to calculate the IC50.

Structure (SMILES): CC1CCCCN1C(=O)Nc1cc(Cl)cc(Cl)c1 (centres unmarked) [JC2]
- norA mRNA degradation [1]: 27%
- pIC50 [2]: 3.70
